Experimental data reported in patent publication US20150374784A1, “COMPOSITIONS AND METHODS FOR REDUCING GERM CELL DEATH” (Los Angeles Biomedical Research Institute at Harbor-UCLA …, priority 2014, published 2015).
Peptide text beside a SMILES is read from it.

Assays:
B16 melanoma cells = assay type: cell-based
Source text: Furthermore, the autophagy induction of humanin may be related to its apparent effects of enhancing longevity observed in other systems.

in vivo = conditions: male, C57BL/6J, mouse, sc, 10 mg/kg BW
Description: The objective of this study was to investigate whether HNG has protective effect on sperm output after multiple doses of CP in mice. Thirty adult male mice (C57BL/6J) were randomized into 4 groups: 1) 5 as control; 2) 5 received daily subcutaneously injection of HNG (10 mg/kg BW); 3) 10 were given 6 doses of CP (150 mg/kg BW) intraperitoneally at 5-day intervals; 4) 10 received both HNG and CP. All mice were killed at 28 days. Plasma HNG and IGF-1 levels were measured by ELISAs. The cauda epididymal sperm count was performed using a hemocytometer.

male germ cells = experiment: TMZ-induced male germ cell apoptosis in SCID mice (TUNEL, Apoptosis Index); assay type: in vivo, mouse; conditions: 24 hours after last injection; TMZ 50 mg/Kg BW/day X 5 days; HNG 5 mg/Kg BW/day
Description: Onco-infertility is a major concern of cancer survivors. In this study, it was investigated whether HNG will prevent chemotherapy (Temozolomide, TMZ, an alkylating agent used clinically to treat brain tumors) induced male germ cell apoptosis in SCID mice bearing subcutaneous implants of human medulloblastoma. DAOY human pediatric medulloblastoma cells ([…] cells/animal) were injected subcutaneously into the right flank of 7-week old male SCID mice. After 3 weeks to allow tumor growth, each group of mice (n=4 to 5/group) received one of the following treatments: 1) vehicle (control); 2) HNG intra-peritoneal (IP) injection (HNG, 5 mg/Kg BW/day, 3 days pretreatment+5 days treatment); 3) TMZ IP injection (TMZ, 50 mg/Kg BW/day X 5 days); 4) TMZ and HNG IP injections (TMZ+HNG). Mice were sacrificed 24 hours after the last injection, subcutaneous tumors were dissected and weighed (FIG. 26) and male germ cell apoptosis was assessed by TUNEL staining and quantified (Apoptosis Index, AI, number of apoptotic germ cell/Sertoli cell, FIG. 27). […] HNG ameliorated TMZ-induced germ cell apoptosis without affecting the chemotherapeutic effect on transplanted medulloblastoma tumor in an immunocompromised mouse model.

Leydig cells = experiment: Testosterone of cultured Leydig cells treated with ketoconazole; assay type: cell-based, rat; conditions: KTZ 10 mcg/ml, 4 hours, 34° C.
Description: Leydig cells were isolated based on a previously described procedure (Gao, et al., 1996; Klinefelter, et al., 1987; Salva, et al., 2001). Briefly, the testes were decapsulated, and then dissociated with collagenase, dispase, DNase and shaking for 15 min at 34° C. The seminiferous tubules were removed by filtration through 40 μm nylon mesh (BD Falcon, Franklin Lakes, N.J.). Leydig cells were then harvested after centrifugation and purified using a Percoll gradient (GE Healthcare, Uppsala, Sweden) and centrifugation (60 minutes at 20,000 g at 4° C.). Enriched Leydig cells were harvested at densities between 1.065 (red) and 1.075 (blue) g/cm^3 from the percoll gradient. These Leydig cells were washed by diluting the percoll and excluding residual germ cells and other cells using a BSA density gradient with centrifugation. The purity of the Leydig cells was >90%, as determined by histochemical staining for 3β-hydroxysteroid dehydrogenase. The cell viability, as assessed by trypan blue exclusion, was greater than 90%. […]
Testosterone concentrations in plasma, testes, and culture medium were measured by a previously described radioimmunoassay (Lue, et al., 2010) with a minimal detection limit of 0.1 ng/ml. […]

With `CC[C@H](C)[C@H](NC(=O)[C@H](CCC(=O)O)NC(=O)CNC(=O)[C@@H](NC(=O)[C@H](CC(C)C)NC(=O)[C@H](CC(C)C)NC(=O)[C@H](CC(C)C)NC(=O)[C@H](CC(C)C)NC(=O)[C@H](CS)NC(=O)[C@H](CO)NC(=O)[C@H](Cc1ccccc1)NC(=O)CNC(=O)[C@H](CCCNC(=N)N)NC(=O)[C@@H]1CCCN1C(=O)[C@H](C)NC(=O)[C@@H](N)CCSC)[C@@H](C)O)C(=O)N[C@@H](CC(=O)O)C(=O)N[C@@H](CC(C)C)C(=O)N1CCC[C@H]1C(=O)N[C@H](C(=O)N[C@@H](CCCCN)C(=O)N[C@@H](CCCNC(=N)N)C(=O)N[C@@H](CCCNC(=N)N)C(=O)N[C@@H](C)C(=O)O)C(C)C` [HNG] (H-MAPRGFSCLLLLTGEIDLPVKRRA-OH; N-terminus and C-terminus assumed) the “cytotoxicity of combined treatment versus doxorubicin treatment alone” value (B16 melanoma cells) was “additive effect on the cytotoxicity” and the level at 672 h (in vivo) was 80.8 ± 7.8 ng/mL.
In the case of `Cn1nnc2c(C(N)=O)ncn2c1=O` [TMZ, Temozolomide], the “Apoptosis Index (AI), apoptotic germ cell/Sertoli cell, early+late stages” value (male germ cells) is reported as 0.116±0.009 and the “Apoptosis Index (AI), apoptotic germ cell/Sertoli cell, middle stages” value (male germ cells) is reported as 0.058±0.006.
For `CC(=O)N1CCN(c2ccc(OCC3COC(Cn4ccnc4)(c4ccc(Cl)cc4Cl)O3)cc2)CC1` (centres unmarked) [KTZ, ketoconazole, reference compound], the “testosterone levels of cultured Leydig cells” value (Leydig cells) was “lowered the testosterone levels significantly”.
